Data: patent US4728726A, “GRF analogs IIIb” (The Salk Institute for Biological Studies, priority 1986, dated 1988)
Square brackets hold non-standard residues; d marks the D form. Ends that are not written are not given here. Peptide text beside a SMILES is read from it. Nle = CCCC[C@H](N)C(=O)O

Tested on: cells of rat pituitary glands
Experiment: in vitro assay of growth hormone release from cultured rat pituitary cells (ir GH by radioimmunoassay)
Assay type: cell-based
Details: potency for GH release relative to standard hGRF(1-40)-OH = 100%; equimolar concentrations; incubation 3 to 4 hours
Method: To determine the relative effectiveness of certain representative synthetic peptides to promote the release of growth hormone, in vitro assays are carried out using synthetic hpGRF(1-40)-OH as a standard in side-by-side comparison with equimolar concentrations of the representative analogs which have been synthesized. Cultures are used which include cells of rat pituitary glands removed some three to five days previously. Such cultures are considered optimal for the secretion of growth hormone and are used for the comparative testing, in the general manner described in Vale et al. Endocrinology, 91, 562-572 (1972) and as more particularly described in Vale et al. Endocrinology, 112, 1553-1555 (1983). Incubation with the substance to be tested is carried out for 3 to 4 hours, and aliquots of the culture medium are removed and processed to measure their contents in immunoreactive GH(ir GH) by a well-characterized radioimmunoassay.

Molecule: CCCC[C@H](NC(=O)[C@@H](NC(=O)[C@H](CC(=O)O)NC(=O)[C@H](CCC(N)=O)NC(=O)[C@H](CC(C)C)NC(=O)[C@H](CC(C)C)NC(=O)[C@H](CCCCN)NC(=O)[C@H](CCCNC(=N)N)NC(=O)[C@H](C)NC(=O)[C@H](CO)NC(=O)[C@H](CC(C)C)NC(=O)[C@H](CCC(N)=O)NC(=O)CNC(=O)[C@H](CC(C)C)NC(=O)[C@@H](NC(=O)[C@H](CCCCN)NC(=O)[C@H](CCCNC(=N)N)NC(=O)[C@H](Cc1ccc(O)cc1)NC(=O)[C@H](CO)NC(=O)[C@H](CC(N)=O)NC(=O)[C@@H](NC(=O)[C@H](Cc1ccccc1)NC(=O)[C@@H](NC(=O)[C@H](C)NC(=O)[C@H](CC(=O)O)NC(=O)[C@@H](C)NC(=O)[C@@H](N)Cc1ccc(O)cc1)[C@@H](C)CC)[C@@H](C)O)C(C)C)[C@@H](C)CC)C(=O)N[C@@H](CC(N)=O)C(=O)N[C@@H](CCCNC(=N)N)C(=O)NCC [[D-Ala^2, Nle^27, Asn^28]-hGRF(1-29)-NHEt] (H-Y[dA]DAIFTNSYRKVLGQLSARKLLQDI[Nle]NR-NHEt)
- Comparison %: 1714%

Molecule: CCCC[C@H](NC(=O)[C@@H](NC(=O)[C@H](CC(=O)O)NC(=O)[C@H](CCC(N)=O)NC(=O)[C@H](CC(C)C)NC(=O)[C@H](CC(C)C)NC(=O)[C@H](CCCCN)NC(=O)[C@H](CCCNC(=N)N)NC(=O)[C@H](C)NC(=O)[C@H](CO)NC(=O)[C@H](CC(C)C)NC(=O)[C@H](CCC(N)=O)NC(=O)CNC(=O)[C@H](CC(C)C)NC(=O)[C@@H](NC(=O)[C@H](CCCCN)NC(=O)[C@H](CCCNC(=N)N)NC(=O)[C@H](Cc1ccc(O)cc1)NC(=O)[C@H](CO)NC(=O)[C@H](CC(N)=O)NC(=O)[C@@H](NC(=O)[C@H](Cc1ccccc1)NC(=O)[C@@H](NC(=O)[C@H](C)NC(=O)[C@H](CC(=O)O)NC(=O)[C@H](C)NC(=O)[C@@H](N)Cc1ccc(O)cc1)[C@@H](C)CC)[C@@H](C)O)C(C)C)[C@@H](C)CC)C(=O)N[C@@H](CO)C(=O)N[C@@H](CCCNC(=N)N)C(N)=O [[Nle^27]-hGRF(1-29)-NH2]
- Comparison %: 238%

Molecule: CCCC[C@H](NC(=O)[C@@H](NC(=O)[C@H](CC(=O)O)NC(=O)[C@H](CCC(N)=O)NC(=O)[C@H](CC(C)C)NC(=O)[C@H](CC(C)C)NC(=O)[C@H](CCCCN)NC(=O)[C@H](CCCNC(=N)N)NC(=O)[C@H](C)NC(=O)[C@H](CO)NC(=O)[C@H](CC(C)C)NC(=O)[C@H](CCC(N)=O)NC(=O)CNC(=O)[C@H](CC(C)C)NC(=O)[C@@H](NC(=O)[C@H](CCCCN)NC(=O)[C@H](CCCNC(=N)N)NC(=O)[C@H](Cc1ccc(O)cc1)NC(=O)[C@H](CO)NC(=O)[C@H](CC(N)=O)NC(=O)[C@@H](NC(=O)[C@H](Cc1ccccc1)NC(=O)[C@@H](NC(=O)[C@H](C)NC(=O)[C@H](CC(=O)O)NC(=O)[C@@H](C)NC(=O)[C@@H](N)Cc1ccc(O)cc1)[C@@H](C)CC)[C@@H](C)O)C(C)C)[C@@H](C)CC)C(=O)N[C@@H](CO)C(=O)N[C@@H](CCCNC(=N)N)C(N)=O [[D-Ala^2, Nle^27]-hGRF(1-29)-NH2]
- Comparison %: 429%

Molecule: hGRF(1-40)-OH (YADAIFTNSYRKVLGQLSARKLLQDIMSRQQGESNQERGA-OH; UniProt P01286 32-71, looked up, fragment) [synthetic human pancreatic (tumor) GH releasing factor (1-40) free acid, used as standard for this test, reference compound]
- Comparison %: 100%

Molecule: CCCC[C@H](NC(=O)[C@@H](NC(=O)[C@H](CCC(=O)O)NC(=O)[C@H](Cc1c[nH]cn1)NC(=O)[C@H](CC(C)C)NC(=O)[C@H](CC(C)C)NC(=O)[C@H](CCCCN)NC(=O)[C@H](CCCNC(=N)N)NC(=O)[C@H](C)NC(=O)[C@H](Cc1ccc(O)cc1)NC(=O)[C@H](CC(C)C)NC(=O)[C@H](CCC(N)=O)NC(=O)CNC(=O)[C@H](CC(C)C)NC(=O)[C@@H](NC(=O)[C@H](CCCNC(=N)N)NC(=O)[C@H](CCCNC(=N)N)NC(=O)[C@H](Cc1ccc(O)cc1)NC(=O)[C@H](CO)NC(=O)[C@H](CO)NC(=O)[C@@H](NC(=O)[C@H](Cc1ccccc1)NC(=O)[C@@H](NC(=O)[C@H](C)NC(=O)[C@H](CC(=O)O)NC(=O)[C@H](C)NC(=O)[C@@H](N)Cc1c[nH]cn1)[C@@H](C)CC)[C@@H](C)O)[C@@H](C)CC)[C@@H](C)CC)C(=O)N[C@H](CC(N)=O)C(=O)N[C@@H](CCCNC(=N)N)C(N)=O [[Nle^27, D-Asn^28]-rGRF(1-29)-NH2] (H-HADAIFTSSYRRILGQLYARKLLHEI[Nle][dN]R-NH2)
- Comparison %: 321%
